Measured values: article PMC5384001 (Scientific Reports, 2017)

Key:
[1] = biological target: T1, GluD2-Lc(D542Y)-(HS2)GluN1 (Rattus norvegicus, UniProt Q63226, A654T/A766F/D542Y/D767R/N763E/R768S/T764L/V761T/V765F); assay: Two-electrode voltage clamp in Xenopus oocytes, inhibition of spontaneous currents; assay type: cell-based
T1 construct: the function of full-length receptors as well, we introduced them into the GluD2 lurcher mutant (GluD2-Lc); expressed in transfected cells; host or cells: Xenopus laevis oocytes injected with cRNA
T1 sequence (Q63226 24-1007 D542Y/A654T/V761T/N763E/T764L/V765F/A766F/D767R/R768S): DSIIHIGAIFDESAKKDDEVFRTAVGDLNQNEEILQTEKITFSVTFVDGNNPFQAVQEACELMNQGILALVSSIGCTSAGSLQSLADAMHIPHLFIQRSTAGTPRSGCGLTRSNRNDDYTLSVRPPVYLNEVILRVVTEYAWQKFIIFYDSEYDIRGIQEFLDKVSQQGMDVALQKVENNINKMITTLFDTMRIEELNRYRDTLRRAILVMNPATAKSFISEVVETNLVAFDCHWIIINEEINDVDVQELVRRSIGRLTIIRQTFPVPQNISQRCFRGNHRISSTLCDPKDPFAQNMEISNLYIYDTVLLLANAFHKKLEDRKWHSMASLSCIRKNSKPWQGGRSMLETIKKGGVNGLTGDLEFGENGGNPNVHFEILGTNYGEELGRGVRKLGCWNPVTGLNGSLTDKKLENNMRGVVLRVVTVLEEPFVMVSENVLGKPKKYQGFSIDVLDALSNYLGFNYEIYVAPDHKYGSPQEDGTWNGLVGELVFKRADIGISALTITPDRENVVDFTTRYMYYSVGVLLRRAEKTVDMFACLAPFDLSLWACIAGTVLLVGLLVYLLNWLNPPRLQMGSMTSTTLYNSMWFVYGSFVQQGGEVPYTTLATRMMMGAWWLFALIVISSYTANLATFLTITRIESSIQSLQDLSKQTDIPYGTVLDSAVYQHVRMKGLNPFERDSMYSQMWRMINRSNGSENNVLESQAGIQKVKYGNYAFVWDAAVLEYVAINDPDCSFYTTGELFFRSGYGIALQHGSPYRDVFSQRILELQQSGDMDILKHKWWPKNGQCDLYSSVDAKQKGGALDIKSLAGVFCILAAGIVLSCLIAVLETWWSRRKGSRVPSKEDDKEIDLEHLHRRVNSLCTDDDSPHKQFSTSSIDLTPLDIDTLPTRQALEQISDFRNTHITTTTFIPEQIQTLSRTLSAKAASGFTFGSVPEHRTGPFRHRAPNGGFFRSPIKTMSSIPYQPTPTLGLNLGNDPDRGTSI
Source text: All cDNAs for expression in Xenopus oocytes were cloned into the vector pSGEM[30]. Point mutants of GluD2-Lc were constructed by overlap extension PCR with mutagenic oligonucleotide primers. The GluD2-Lc-(H)GluN1 chimera was constructed by transferring the S1- and S2-encoding sequences from GluD2-LBD-(H)GluN1 to GluD2-Lc via overlap extension PCR using tail primers. The S1 and S2 sequences were transferred separately, yielding GluD2-Lc-(HS1)GluN1 and GluD2-Lc-(HS2)GluN1 constructs. GluD2-Lc-(H)GluN1 was then produced from these by another overlap extension PCR. Complementary RNA (cRNA) for injection into oocytes was synthesised from 1 μg of linearised template DNA with the mMESSAGE mMACHINE in vitro transcription kit (Ambion, Austin, TX, USA).
Oocytes were obtained by surgically removing parts of the ovaries from Xenopus laevis (Nasco, Fort Atkinson, WI, USA) anaesthetised with 1.5 g/L 3-aminobenzoic acid ethylester (Sigma, Taufkirchen, Germany). The ovary clippings were digested with 784 U/mL (4 mg/mL) collagenase type I (Worthington, Lakewood, NJ, USA) in Ca^2+-free Barth’s solution (88 mM NaCl, 1.1 mM KCl, 2.4 mM NaHCO3, 0.8 mM MgSO4, 15 mM HEPES-NaOH, pH 7.6) with gentle agitation for 1.5–2 h at 20 °C to remove the follicular cell layer. After stopping the collagenase digestion by washing with Barth’s solution (88 mM NaCl, 1.1 mM KCl, 2.4 mM NaHCO3, 0.3 mM Ca(NO3)2, 0.4 mM CaCl2, 0.8 mM MgSO4, 15 mM HEPES-NaOH, pH 7.6), defolliculated oocytes of stages V and VI were selected and maintained at 16 °C in Barth’s solution supplemented with 100 μg/mL gentamicin, 40 μg/mL streptomycin, and 63 μg/mL penicillin. Oocytes were injected with 11 ng cRNA (10 ng of each cRNA for co-expression of GluN1 and GluN2A) using a nanoliter injector (WPI, Sarasota, FL, USA). Four days after cRNA injection, current responses were recorded under voltage clamp at –70 mV with a Turbo Tec-10CD amplifier (npi electronic, Tamm, Germany) controlled by Patchmaster software (HEKA, Lambrecht, Germany). Currents were filtered with a 20 Hz low-pass filter and then digitised with a sampling rate of 50 Hz. Recording electrodes were pulled from borosilicate glass (Hilgenberg, Malsfeld, Germany) with an L/M-3P-A vertical pipette puller (List-Medical), filled with 3 M KCl, and had resistances of 0.5–5 MΩ (voltage electrode) or 0.5–1.5 MΩ (current electrode). Recordings were performed in a 50 μL chamber under constant superfusion with extracellular solution at a flow rate of 3–5 mL/min. […] Finally, Ba-NFR and then NMDGR were applied again to check for reversibility.

parallel fiber EPSCs = conditions: inhibitory effect on parallel fiber EPSCs; read-out: apparent EC50; cited from earlier work

N[C@H](CO)C(=O)O [D-serine]
D-serine efficacy Mean ± SEM ([1]; fraction of spontaneous current inhibited by D-serine): –3.4 ± 0.5%
sensitivity to D-serine ([1]; inhibition of spontaneous currents): insensitive
EC50 (parallel fiber EPSCs): 147 µM
